Source: PubChem BioAssay (NCI)
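96-well plates; 48 h exposure; 5 concentrations. Endpoints by linear interpolation between flanking doses. Not reached: highest tested concentration assigned. GI50: concentration for 50% inhibition of growth. TGI marks complete inhibition of growth.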

What was measured:
Test in all cases: NCI tumour cell line growth inhibition, 48 h
CAKI-1 renal = test system: CAKI-1 renal
EKVX NSCLC = test system: EKVX NSCLC
MALME-3M melanoma = test system: MALME-3M melanoma
NCI-H460 lung = test system: NCI-H460 lung
SF-268 CNS = test system: SF-268 CNS
SF-295 CNS = test system: SF-295 CNS
SK-MEL-5 melanoma = test system: SK-MEL-5 melanoma
UACC-62 melanoma = test system: UACC-62 melanoma
HS 578T breast = test system: HS 578T breast
MDA-MB-435 = test system: MDA-MB-435

Structure (SMILES)	TGI (CAKI-1 renal) [µM]	TGI (EKVX NSCLC) [µM]	TGI (MALME-3M melanoma) [µM]	TGI (NCI-H460 lung) [µM]	TGI (SF-268 CNS) [µM]	TGI (SF-295 CNS) [µM]	TGI (SK-MEL-5 melanoma) [µM]	TGI (UACC-62 melanoma) [µM]	GI50 (EKVX NSCLC) [µM]	GI50 (HS 578T breast) [µM]	TGI (HS 578T breast) [µM]	GI50 (MALME-3M melanoma) [µM]	GI50 (MDA-MB-435) [µM]	TGI (MDA-MB-435) [µM]	GI50 (SF-268 CNS) [µM]	GI50 (SF-295 CNS) [µM]	GI50 (UACC-62 melanoma) [µM]	GI50 (NCI-H460 lung) [µM]	GI50 (SK-MEL-5 melanoma) [µM]	GI50 (CAKI-1 renal) [µM]
COC(=O)/C(=N\NC(=O)C[N+](C)(C)C)C(C(=O)OC)C(=O)C(=O)Nc1ccccc1C(N)=O (stereo not drawn)	> 100	> 100	> 100	> 100	> 100	> 100	> 100	> 100												
O=C1c2cccc(NCCN=Cc3cc([N+](=O)[O-])ccc3O)c2C(=O)c2c(NCCN=Cc3cc([N+](=O)[O-])ccc3O)cccc21		> 100	83.2		> 100	52.1		> 100	16.1	2.74	29.4	16.7	4.28	> 100	2.42	2.08	33			
COc1cccc2c1ccc1nc3cccc(C(=O)N[C@H](C)CN(C)C)c3nc12		3.16	0.473	0.221	0.916	2.58	0.342	0.198	0.141	0.166	3.42	0.0806	0.0976	0.986	0.0654	0.0586	0.0447	0.0354	0.125	
O=c1cc(-c2ccccc2F)[nH]c2ccc(N3CCCC3)cc12			> 100					> 100	> 100	< 0.001					< 0.001		< 0.001	< 0.001	< 0.001	
O=c1[nH]nc2ccccc2c1Cc1ccccc1	> 100	> 100	> 100	> 100	> 100	> 100	> 100	> 100												
Clc1ccc(N=Nc2nc3ccccc3nc2N=Nc2ccc(Cl)cc2Cl)c(Cl)c1		> 100	> 100	> 100	> 100	> 100														
c1ccc(C(c2ccccc2)c2cccnc2)cc1	> 100	> 100	> 100	> 100	> 100	> 100	> 100	> 100												
CCOC(=O)c1cc2c(n1Cc1cccc(OC)c1)-c1oncc1CCC2	> 100		> 100	> 100	> 100	> 100	14.8	> 100		1.6	24.8	0.695	0.153	0.456	9.03	0.616	0.712	3.52	0.693	2.12
Cc1ccc(SSc2ccc(C)cc2C(=O)O)c(C(=O)O)c1	> 100	> 100	> 100	> 100	> 100	> 100	> 100	> 100												
COc1cc([C@@H]2c3cc4c(cc3[C@@H](OC(=O)c3ccc(N)cc3)C3COC(=O)[C@@H]32)OCO4)cc(OC)c1O (stereo partly drawn)	> 95	> 95	63.5	46.7	> 95	> 95	16.7	19.5												
